Measurements taken from patent US20240148821A1, “PHARMACEUTICAL USE OF CYCLIC PEPTIDE COMPOUND” (CHUGAI SEIYAKU KABUSHIKI KAISHA, priority 2021, published 2024).
pIC50: −log10 of the molar value. Bridge positions count the residues as written; N and C are the ends. Square brackets hold non-standard residues; d marks the D form. Peptide text beside a SMILES is read from it. * marks the point of attachment. hPhe(3-Cl-4-CF3) = N[C@@H](CCc1ccc(C(F)(F)F)c(Cl)c1)C(=O)O; hPhe(3-F,4-CF3) = N[C@@H](CCc1ccc(C(F)(F)F)c(F)c1)C(=O)O; NMePhe(4-Cl) = CN[C@@H](Cc1ccc(Cl)cc1)C(=O)O; NMePhe(4-F) = CN[C@@H](Cc1ccc(F)cc1)C(=O)O; NMeMet(O2) = CN[C@@H](CCS(C)(=O)=O)C(=O)O; Leu(4,5-dehydro) = C=C(C)C[C@H](N)C(=O)O; Phe(3-I) = N[C@@H](Cc1cccc(I)c1)C(=O)O; Pro(4,4-F2) = O=C(O)[C@@H]1CC(F)(F)CN1; NMeY = CN[C@@H](Cc1ccc(O)cc1)C(=O)O; NMeCha = CN[C@@H](CC1CCCCC1)C(=O)O; NMeAoc(2) = CCCCCC[C@H](NC)C(=O)O; NMeChg = CN[C@H](C(=O)O)C1CCCCC1; hPhe = N[C@@H](CCc1ccccc1)C(=O)O; NMeD = CN[C@@H](CC(=O)O)C(=O)O; NMeL = CN[C@@H](CC(C)C)C(=O)O; NMeV = CN[C@H](C(=O)O)C(C)C; d(β3hA) = C[C@@H](N)CC(=O)O; NMeS = CN[C@@H](CO)C(=O)O; Morpholide = C1CN(*)CCO1; NMeA = CN[C@@H](C)C(=O)O; NMeAib = CNC(C)(C)C(=O)O; Nle = CCCC[C@H](N)C(=O)O; Piperidide = C1CCN(*)CC1; dNMeA = CN[C@H](C)C(=O)O; Ac5c = NC1(C(=O)O)CCCC1; Aze = O=C(O)[C@@H]1CCN1; Sar = CNCC(=O)O; Propyl = CCC*

These molecules were tested on Human pancreatic cancer cell line AsPC-1 (G12D mutation Kras) (assay: AsPC-1 cell growth inhibition (AsPC-1 CGI)). Details: read-out: AsPC-1 cell growth inhibition, 50% growth inhibitory concentration (IC50 value); 96 hours, CellTiter-Glo, values classified in ranges.
Assay type: cell-based
Procedure: Test compounds were serially dilated with dimethyl sulfoxide, and 200 nL was then dispensed to a U-bottom 96-well plate using Labcyte Echo. […] The cell suspension was dispensed to a. plate containing a test compound at 100 μL per well and incubated at 37° C. in a 5% carbon dioxide gas incubator. 96 hours later, 80 μL of CellTiter-Glo (Promega) was added to each well and fluorescence was measured.

`CC[C@H](C)[C@@H]1NC(=O)[C@H](CC(C)C)N(C)C(=O)C[C@@H](C(=O)N2CCCCC2)N(C)C(=O)[C@H](C(C)C)N(C)C(=O)C2(CCCC2)NC(=O)[C@@H]2CCCN2C(=O)[C@H](CCc2ccccc2)NC(=O)CN(C)C(=O)[C@H](CC2CCCCC2)N(C)C(=O)CN(C)C(=O)CN(C)C1=O` [Compound 265] ([NMeL]I[Sar][Sar][NMeCha][Sar][hPhe]P[Ac5c][NMeV][NMeD]-Piperidide; lactam N-11) and `CC[C@H](C)[C@@H]1NC(=O)[C@H](CC(C)C)N(C)C(=O)C[C@@H](C(=O)N2CCCCC2)N(C)C(=O)[C@H](CCS(C)(=O)=O)N(C)C(=O)C2(CCCC2)NC(=O)[C@@H]2CCCN2C(=O)[C@H](CCc2ccc(C(F)(F)F)c(Cl)c2)NC(=O)CN(C)C(=O)[C@H](CC2CCCCC2)N(C)C(=O)CN(C)C(=O)CN(C)C1=O` [Compound 162] ([NMeL]I[Sar][Sar][NMeCha][Sar][hPhe(3-Cl-4-CF3)]P[Ac5c][NMeMet(O2)][NMeD]-Piperidide; lactam N-11) cannot be ordered by pIC50: less than 6.30 for the first, less than 6.30 for the second.

Going from `CC[C@H](C)[C@@H]1NC(=O)[C@H](CC(C)C)N(C)C(=O)C[C@@H](C)NC(=O)[C@H](CC(C)C)N(C)C(=O)C2(CCCC2)NC(=O)[C@@H]2CC(F)(F)CN2C(=O)[C@H](CCc2ccc(C(F)(F)F)c(F)c2)NC(=O)CN(C)C(=O)[C@H](CC2CCCCC2)N(C)C(=O)CN(C)C(=O)CN(C)C1=O` [Compound 1509] (cyclo([Ac5c][NMeL][d(β3hA)][NMeL]I[Sar][Sar][NMeCha][Sar][hPhe(3-F,4-CF3)][Pro(4,4-F2)])) to `CC[C@H](C)[C@@H]1NC(=O)[C@H](CC(C)C)N(C)C(=O)C[C@@H](C(=O)N2CCOCC2)N(C)C(=O)[C@H](C2CCCCC2)N(C)C(=O)C2(CCCC2)NC(=O)[C@@H]2CC(F)(F)CN2C(=O)[C@H](CCc2ccc(C(F)(F)F)c(Cl)c2)NC(=O)CN(C)C(=O)[C@H](CC2CCCCC2)N(C)C(=O)CN(C)C(=O)CN(C)C1=O` [Compound 1194] ([NMeL]I[Sar][Sar][NMeCha][Sar][hPhe(3-Cl-4-CF3)][Pro(4,4-F2)][Ac5c][NMeChg][NMeD]-Morpholide; lactam N-11), the pIC50 rises from less than 6.30 to no less than 7.70.

`CCCOC[C@H]1C(=O)N(C)[C@H](C(=O)N2CCCCC2)CC(=O)N(C)[C@@H](CC(C)C)C(=O)N[C@@H]([C@@H](C)CC)C(=O)N(C)[C@@H](C)C(=O)N2CC[C@H]2C(=O)N(C)[C@@H](CC2CCCCC2)C(=O)N(C)CC(=O)N[C@@H](CCc2ccc(C(F)(F)F)c(Cl)c2)C(=O)N2CCC[C@H]2C(=O)NC2(CCCC2)C(=O)N1C` [Compound 1855] ([NMeL]I[NMeA][Aze][NMeCha][Sar][hPhe(3-Cl-4-CF3)]P[Ac5c][NMeS](Propyl)[NMeD]-Piperidide; lactam N-11) and `CC[C@H](C)[C@@H]1NC(=O)[C@H](COC)N(C)C(=O)C[C@@H](C(=O)N2CCCCC2)N(C)C(=O)[C@H](C(C)C)N(C)C(=O)C2(CCCC2)NC(=O)[C@@H]2CCCN2C(=O)[C@H](CCc2ccc(C(F)(F)F)c(Cl)c2)NC(=O)CN(C)C(=O)[C@H](CC2CCCCC2)N(C)C(=O)[C@@H]2CCN2C(=O)[C@H](C)N(C)C1=O` [Compound 636] ([NMeS](Me)I[NMeA][Aze][NMeCha][Sar][hPhe(3-Cl-4-CF3)]P[Ac5c][NMeV][NMeD]-Piperidide; lactam N-11) cannot be ordered by pIC50: less than 6.30 for the first, less than 6.30 for the second.

`C=C(C)C[C@@H]1NC(=O)[C@H](Cc2cccc(I)c2)NC(=O)CN(C)C(=O)[C@H](Cc2ccc(Cl)cc2)N(C)C(=O)CN(C)C(=O)CN(C)C(=O)[C@H]([C@@H](C)CC)NC(=O)[C@H](CC(C)C)N(C)C(=O)C[C@@H](C(=O)N2CCCCC2)N(C)C(=O)[C@H](CC(C)C)NC(=O)C(C)(C)N(C)C1=O` [Compound 1421] ([NMeL]I[Sar][Sar][NMePhe(4-Cl)][Sar][Phe(3-I)][Leu(4,5-dehydro)][NMeAib]L[NMeD]-Piperidide; lactam N-11) and `CCCCCC[C@H]1C(=O)N[C@@H]([C@@H](C)CC)C(=O)N(C)CC(=O)N2CC[C@H]2C(=O)N(C)[C@@H](Cc2ccc(OC)cc2)C(=O)N(C)CC(=O)N[C@@H](Cc2cccc(I)c2)C(=O)N[C@@H](CCCC)C(=O)N(C)C(C)(C)C(=O)N[C@@H](CC(C)C)C(=O)N(C)[C@H](C(=O)N2CCCCC2)CC(=O)N1C` [Compound 1417] ([NMeAoc(2)]I[Sar][Aze][NMeY](Me)[Sar][Phe(3-I)][Nle][NMeAib]L[NMeD]-Piperidide; lactam N-11) cannot be ordered by pIC50: less than 6.30 for the first, less than 6.30 for the second.

Molecule `CC[C@H](C)[C@@H]1NC(=O)[C@H](C)N(C)C(=O)C[C@@H](C(=O)N2CCCCC2)N(C)C(=O)[C@H](C(C)C)N(C)C(=O)C2(CCCC2)NC(=O)[C@@H]2CCCN2C(=O)[C@H](CCc2ccc(C(F)(F)F)c(Cl)c2)NC(=O)[C@@H](C)N(C)C(=O)[C@H](Cc2ccc(F)cc2)N(C)C(=O)[C@@H]2CCCN2C(=O)CN(C)C1=O` [Compound 1853] ([NMeA]I[Sar]P[NMePhe(4-F)][dNMeA][hPhe(3-Cl-4-CF3)]P[Ac5c][NMeV][NMeD]-Piperidide; lactam N-11) has a pIC50 of less than 6.30.
